In general, pIC50 refers to the IC50 on a negative log10 scale, so that one unit is a factor of ten. Low readings indicate a large IC50, high ones a small IC50. The term pKi denotes −log10 of the Ki, conventionally taken in molar units. A higher pKi goes with a low Ki.

For this test, the target named is T1, Dimer of Gag-Pol polyprotein [489-587] (Human immunodeficiency virus 1, UniProt P12497).
T1 construct: 489-587
The test can be described thus: Protease Inhibition Assay. As to conditions: pH 5.5; 37 °C. The protocol: Sensitivity of HIV-1 protease activity to protease inhibitors was determined by a peptide substrate cleavage assay. Protease products were analyzed on a reverse-phase high-pressure liquid chromatograph.

pIC50, pKi: −log10 of the molar value.

`CC(C)(C)OC(=O)N[C@@H](CC1CCCCC1)[C@H](O)CNC[C@@H](O)[C@H](CC1CCCCC1)NC(=O)OC(C)(C)C` [(R,S)-[Iminobis[1-(cyclohexylmethyl)-2-hydroxy-3,1-propanediyl]]bis[carbamic acid], Bis(1,1-dimethylethylester)]: the pIC50 is 6.10. Consider `CC(C)(C)OC(=O)N[C@@H](Cc1ccccc1)[C@H](O)CNC[C@@H](O)[C@H](Cc1ccc(O)cc1)NC(=O)OC(C)(C)C` [BMS-186318 analog 4], for which the pIC50 was 7.00. Consider `CC(C)(C)OC(=O)N[C@@H](Cc1ccccc1)[C@H](O)CNC[C@@H](O)[C@H](Cc1ccccc1)NC(=O)OC(C)(C)C` [tert-butyl N-[(2S,3R)-4-{[(2R,3S)-3-{[(tert-butoxy)carbonyl]amino}-2-hydroxy-4-phenylbutyl]amino}-3-hydroxy-1-phenylbutan-2-yl]carbamate], for which the pKi is 7.00. With `CC(C)(C)OC(=O)N[C@@H](CCc1ccccc1)[C@H](O)CNC[C@@H](O)[C@H](Cc1ccccc1)NC(=O)OC(C)(C)C` [tert-butyl N-[(2S,3R)-4-{[(2R,3S)-3-{[(tert-butoxy)carbonyl]amino}-2-hydroxy-5-phenylpentyl]amino}-3-hydroxy-1-phenylbutan-2-yl]carbamate], the pIC50 was 6.30.

The values are drawn from BindingDB's records for doi:10.1021/jm00038a005 (Bristol-Myers Squibb, 1994).
